Assays:
[1] = target: Tyrosine-protein kinase ABL2 (Homo sapiens, UniProt P42684); test: Selectivity interaction (KinomeScan (DiscoverX)) EUB0001049a ABL2; conditions: at 1 µM
[2] = target: T1, Serine/threonine-protein kinase RIO1 (Homo sapiens) (UniProt Q9BRS2); test: Selectivity interaction (KinomeScan (DiscoverX)) EUB0001049a RIOK1; conditions: at 1 µM
T1 sequence (whole entry): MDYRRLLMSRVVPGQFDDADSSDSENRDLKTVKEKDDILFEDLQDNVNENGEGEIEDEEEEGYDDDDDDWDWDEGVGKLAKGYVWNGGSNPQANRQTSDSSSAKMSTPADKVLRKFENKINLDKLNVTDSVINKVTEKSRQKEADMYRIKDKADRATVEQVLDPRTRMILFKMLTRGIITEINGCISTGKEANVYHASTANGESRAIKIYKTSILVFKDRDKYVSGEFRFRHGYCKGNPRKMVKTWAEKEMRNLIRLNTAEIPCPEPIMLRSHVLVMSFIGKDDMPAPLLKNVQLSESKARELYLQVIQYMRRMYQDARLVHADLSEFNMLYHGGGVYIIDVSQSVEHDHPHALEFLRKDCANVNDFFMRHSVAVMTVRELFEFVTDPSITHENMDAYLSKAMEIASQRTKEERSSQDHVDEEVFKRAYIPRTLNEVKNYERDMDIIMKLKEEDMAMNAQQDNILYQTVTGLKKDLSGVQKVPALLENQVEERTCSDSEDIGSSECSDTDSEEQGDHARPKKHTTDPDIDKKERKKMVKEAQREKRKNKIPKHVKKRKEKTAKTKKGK

[3] = target: Serine/threonine-protein kinase 25 (Homo sapiens) (UniProt O00506); test: Selectivity interaction (Ambit KINOMEscan and KiNATiv profiling in Jurkat cells) EUB0000090b STK25; type: cell-based; conditions: at 1 µM
Serine/threonine-protein kinase 25 (Homo sapiens), sequence (O00506 whole entry, looked up): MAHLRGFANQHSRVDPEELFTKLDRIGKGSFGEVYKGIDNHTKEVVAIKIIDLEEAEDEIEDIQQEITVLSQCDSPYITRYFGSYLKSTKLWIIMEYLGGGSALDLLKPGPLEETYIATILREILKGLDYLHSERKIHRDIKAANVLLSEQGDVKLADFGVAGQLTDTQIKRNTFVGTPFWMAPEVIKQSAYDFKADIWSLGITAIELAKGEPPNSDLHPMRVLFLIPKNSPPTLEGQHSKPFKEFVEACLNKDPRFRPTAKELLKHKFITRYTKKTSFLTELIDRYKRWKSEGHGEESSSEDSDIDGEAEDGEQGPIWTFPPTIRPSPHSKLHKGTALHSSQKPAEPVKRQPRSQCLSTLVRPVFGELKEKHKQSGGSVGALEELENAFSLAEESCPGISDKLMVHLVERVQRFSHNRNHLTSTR

[4] = target: Dual specificity protein kinase CLK4 (Homo sapiens, UniProt Q9HAZ1); test: Selectivity interaction (Ambit KINOMEscan and KiNATiv profiling in Jurkat cells) EUB0000090b CLK4; type: cell-based; conditions: at 1 µM
Dual specificity protein kinase CLK4, sequence (Q9HAZ1 whole entry, looked up): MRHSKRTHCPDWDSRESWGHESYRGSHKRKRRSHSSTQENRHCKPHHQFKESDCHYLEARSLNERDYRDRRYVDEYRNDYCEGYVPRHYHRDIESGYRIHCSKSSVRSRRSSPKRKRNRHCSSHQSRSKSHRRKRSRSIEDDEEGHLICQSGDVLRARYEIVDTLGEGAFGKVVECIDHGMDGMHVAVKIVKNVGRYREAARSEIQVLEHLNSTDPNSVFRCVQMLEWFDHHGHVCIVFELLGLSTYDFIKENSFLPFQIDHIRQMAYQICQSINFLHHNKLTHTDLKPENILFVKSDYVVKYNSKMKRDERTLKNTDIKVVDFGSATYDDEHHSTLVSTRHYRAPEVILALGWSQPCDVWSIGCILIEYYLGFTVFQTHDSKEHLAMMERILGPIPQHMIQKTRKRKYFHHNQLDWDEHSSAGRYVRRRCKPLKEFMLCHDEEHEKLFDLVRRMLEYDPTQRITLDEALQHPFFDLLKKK

[5] = target: Cyclin-dependent kinase 5 (Homo sapiens, UniProt Q00535); test: Selectivity interaction (ActivX KiNativ screen (kinase selectivity in THP-1 cell lysates)) EUB0000639a CDK5; type: subcellular; conditions: lysate, at 0.04 µM
Cyclin-dependent kinase 5, sequence (Q00535 whole entry, looked up): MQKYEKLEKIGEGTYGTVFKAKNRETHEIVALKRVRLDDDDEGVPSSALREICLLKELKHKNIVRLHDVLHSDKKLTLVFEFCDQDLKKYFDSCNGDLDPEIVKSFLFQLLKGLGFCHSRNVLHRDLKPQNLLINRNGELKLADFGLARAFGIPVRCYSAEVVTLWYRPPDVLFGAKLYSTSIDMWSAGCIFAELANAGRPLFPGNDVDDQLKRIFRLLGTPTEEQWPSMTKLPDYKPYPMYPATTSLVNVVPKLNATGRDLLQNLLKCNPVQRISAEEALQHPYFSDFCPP

[6] = target: T2, Scaffold protein ILK (Homo sapiens) (UniProt Q13418); test: Selectivity interaction (ActivX KiNativ screen (kinase selectivity in THP-1 cell lysates)) EUB0000639a ILK; type: subcellular; conditions: lysate
T2 sequence (whole entry): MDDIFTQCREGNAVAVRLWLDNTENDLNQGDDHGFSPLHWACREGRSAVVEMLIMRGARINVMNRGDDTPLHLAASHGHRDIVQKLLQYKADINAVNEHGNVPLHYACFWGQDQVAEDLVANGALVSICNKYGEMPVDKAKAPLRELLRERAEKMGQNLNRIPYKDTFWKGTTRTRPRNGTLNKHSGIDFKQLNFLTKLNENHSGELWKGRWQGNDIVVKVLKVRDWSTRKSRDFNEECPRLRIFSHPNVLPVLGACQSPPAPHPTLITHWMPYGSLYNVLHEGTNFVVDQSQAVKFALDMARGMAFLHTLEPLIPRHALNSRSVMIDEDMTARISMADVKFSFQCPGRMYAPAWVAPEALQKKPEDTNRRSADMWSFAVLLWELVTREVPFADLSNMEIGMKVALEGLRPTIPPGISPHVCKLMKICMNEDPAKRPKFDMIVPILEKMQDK

[7] = target: Non-receptor tyrosine-protein kinase TYK2 (Homo sapiens, UniProt P29597); test: Selectivity interaction (ActivX KiNativ screen (kinase selectivity in THP-1 cell lysates)) EUB0000639a TYK2; type: subcellular; conditions: lysate, at 1 µM
Non-receptor tyrosine-protein kinase TYK2, sequence (P29597 whole entry): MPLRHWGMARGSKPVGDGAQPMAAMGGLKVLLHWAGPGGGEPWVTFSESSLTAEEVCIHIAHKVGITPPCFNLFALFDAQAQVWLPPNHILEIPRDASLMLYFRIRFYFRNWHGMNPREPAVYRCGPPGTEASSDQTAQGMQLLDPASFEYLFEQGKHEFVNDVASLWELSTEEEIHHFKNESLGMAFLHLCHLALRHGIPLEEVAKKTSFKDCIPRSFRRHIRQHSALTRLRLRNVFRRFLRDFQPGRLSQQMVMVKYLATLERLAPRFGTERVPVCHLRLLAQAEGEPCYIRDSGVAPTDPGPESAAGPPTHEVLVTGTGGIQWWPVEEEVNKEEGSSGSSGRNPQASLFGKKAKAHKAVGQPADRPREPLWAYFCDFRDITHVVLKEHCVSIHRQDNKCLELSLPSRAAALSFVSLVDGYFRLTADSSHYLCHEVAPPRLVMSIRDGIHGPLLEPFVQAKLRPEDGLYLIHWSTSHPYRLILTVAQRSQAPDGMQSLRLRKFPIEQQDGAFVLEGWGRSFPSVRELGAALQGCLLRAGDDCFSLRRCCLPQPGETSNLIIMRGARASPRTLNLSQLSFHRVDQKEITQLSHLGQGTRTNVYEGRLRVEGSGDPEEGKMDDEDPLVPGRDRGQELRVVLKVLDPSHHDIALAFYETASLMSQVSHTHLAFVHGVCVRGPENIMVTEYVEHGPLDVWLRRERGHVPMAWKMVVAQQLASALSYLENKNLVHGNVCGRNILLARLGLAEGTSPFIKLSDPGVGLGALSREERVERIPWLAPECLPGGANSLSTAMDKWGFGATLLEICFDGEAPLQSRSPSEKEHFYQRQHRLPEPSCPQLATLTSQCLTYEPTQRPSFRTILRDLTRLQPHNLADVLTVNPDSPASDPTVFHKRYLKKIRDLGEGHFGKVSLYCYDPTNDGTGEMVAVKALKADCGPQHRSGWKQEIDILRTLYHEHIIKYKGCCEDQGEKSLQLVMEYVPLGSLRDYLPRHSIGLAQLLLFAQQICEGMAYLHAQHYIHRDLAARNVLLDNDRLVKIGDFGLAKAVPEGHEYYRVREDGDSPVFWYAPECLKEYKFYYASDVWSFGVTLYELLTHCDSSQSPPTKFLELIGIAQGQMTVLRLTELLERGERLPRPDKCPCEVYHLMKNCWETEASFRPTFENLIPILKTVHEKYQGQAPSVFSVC

[8] = target: DNA (cytosine-5)-methyltransferase 1 (Homo sapiens) (UniProt P26358); conditions: at 10 µM
DNA (cytosine-5)-methyltransferase 1 (Homo sapiens), sequence (P26358 whole entry): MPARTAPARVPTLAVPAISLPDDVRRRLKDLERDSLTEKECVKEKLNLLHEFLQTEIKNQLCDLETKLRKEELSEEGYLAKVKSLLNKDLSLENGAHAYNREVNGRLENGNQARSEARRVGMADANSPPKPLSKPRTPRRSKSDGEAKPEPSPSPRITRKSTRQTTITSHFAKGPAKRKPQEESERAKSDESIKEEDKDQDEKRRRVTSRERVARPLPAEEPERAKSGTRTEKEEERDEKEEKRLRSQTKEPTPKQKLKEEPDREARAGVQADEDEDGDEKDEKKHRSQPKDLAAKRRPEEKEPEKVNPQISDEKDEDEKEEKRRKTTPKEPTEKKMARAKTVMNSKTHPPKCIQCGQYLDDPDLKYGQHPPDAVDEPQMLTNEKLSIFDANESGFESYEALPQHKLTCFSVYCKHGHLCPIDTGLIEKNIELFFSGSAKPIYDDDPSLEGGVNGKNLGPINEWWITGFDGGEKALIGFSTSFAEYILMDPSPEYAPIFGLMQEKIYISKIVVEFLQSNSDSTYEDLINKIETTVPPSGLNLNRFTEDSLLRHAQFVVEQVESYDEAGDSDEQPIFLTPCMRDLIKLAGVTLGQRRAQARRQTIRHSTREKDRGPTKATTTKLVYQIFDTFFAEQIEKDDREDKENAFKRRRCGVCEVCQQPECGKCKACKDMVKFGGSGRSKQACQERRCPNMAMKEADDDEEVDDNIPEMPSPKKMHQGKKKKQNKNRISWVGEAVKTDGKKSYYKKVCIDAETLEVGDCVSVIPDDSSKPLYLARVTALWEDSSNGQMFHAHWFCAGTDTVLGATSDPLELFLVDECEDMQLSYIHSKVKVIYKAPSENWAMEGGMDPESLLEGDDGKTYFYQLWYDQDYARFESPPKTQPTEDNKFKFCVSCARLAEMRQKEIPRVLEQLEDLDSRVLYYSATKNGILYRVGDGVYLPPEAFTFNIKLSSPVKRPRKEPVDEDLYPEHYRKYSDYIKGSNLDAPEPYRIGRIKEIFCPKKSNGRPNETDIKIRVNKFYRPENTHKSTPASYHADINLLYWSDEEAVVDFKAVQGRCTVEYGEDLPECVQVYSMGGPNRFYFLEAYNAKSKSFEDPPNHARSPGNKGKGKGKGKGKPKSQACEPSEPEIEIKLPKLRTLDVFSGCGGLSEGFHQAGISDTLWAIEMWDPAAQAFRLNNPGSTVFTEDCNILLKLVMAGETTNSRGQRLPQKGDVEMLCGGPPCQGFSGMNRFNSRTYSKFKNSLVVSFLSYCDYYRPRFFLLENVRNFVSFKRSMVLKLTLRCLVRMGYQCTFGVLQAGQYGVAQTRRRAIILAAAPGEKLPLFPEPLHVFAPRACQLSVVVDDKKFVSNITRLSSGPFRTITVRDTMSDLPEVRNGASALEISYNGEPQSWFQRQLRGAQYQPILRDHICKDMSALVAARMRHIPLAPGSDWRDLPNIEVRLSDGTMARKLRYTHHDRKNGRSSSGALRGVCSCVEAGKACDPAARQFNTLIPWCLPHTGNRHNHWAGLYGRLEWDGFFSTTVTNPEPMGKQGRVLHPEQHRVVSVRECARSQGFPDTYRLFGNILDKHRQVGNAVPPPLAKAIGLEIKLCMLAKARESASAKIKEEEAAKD

[9] = target: T3, Serine/threonine-protein kinase Sgk1 (Homo sapiens) (UniProt O00141); test: Selectivity interaction (Kinase panel (Z-LYTE Assay)) EUB0001632a SGK1; conditions: at 10 µM
T3 sequence (whole entry): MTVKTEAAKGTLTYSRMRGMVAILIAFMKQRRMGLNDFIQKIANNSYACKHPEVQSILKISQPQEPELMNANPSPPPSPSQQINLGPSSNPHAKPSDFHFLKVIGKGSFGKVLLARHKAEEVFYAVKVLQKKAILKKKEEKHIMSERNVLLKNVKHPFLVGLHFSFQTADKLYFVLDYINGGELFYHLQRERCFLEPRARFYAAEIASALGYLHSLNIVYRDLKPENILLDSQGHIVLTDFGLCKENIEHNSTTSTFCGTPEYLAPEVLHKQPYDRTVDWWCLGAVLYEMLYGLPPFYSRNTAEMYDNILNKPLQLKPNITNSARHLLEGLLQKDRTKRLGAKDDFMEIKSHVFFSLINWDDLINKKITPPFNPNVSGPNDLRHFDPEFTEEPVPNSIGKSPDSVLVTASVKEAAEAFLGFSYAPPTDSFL

[10] = target: Mitogen-activated protein kinase 14 (Homo sapiens, UniProt Q16539); test: Selectivity interaction (KinomeScan (DiscoverX)) EUB0000695a MAPK14; conditions: at 100 nM
[11] = target: T4, Casein kinase I isoform alpha-like (Homo sapiens) (UniProt Q8N752); test: Selectivity interaction (KinomeScan (DiscoverX)) EUB0000229b CSNK1A1L; conditions: at 10 µM
T4 sequence (whole entry): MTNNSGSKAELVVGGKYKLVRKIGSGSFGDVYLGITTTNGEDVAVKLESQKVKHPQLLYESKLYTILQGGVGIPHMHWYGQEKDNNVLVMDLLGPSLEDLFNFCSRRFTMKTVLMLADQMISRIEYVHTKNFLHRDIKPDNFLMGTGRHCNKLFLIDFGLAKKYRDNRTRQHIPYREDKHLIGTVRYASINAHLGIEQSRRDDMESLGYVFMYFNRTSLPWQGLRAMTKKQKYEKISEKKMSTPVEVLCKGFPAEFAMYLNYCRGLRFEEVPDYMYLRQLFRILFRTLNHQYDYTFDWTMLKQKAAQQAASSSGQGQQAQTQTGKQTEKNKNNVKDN

[12] = target: Tyrosine-protein kinase HCK (Homo sapiens) (UniProt P08631); test: Selectivity interaction (ActivX KiNativ screen (ex vivo kinase selectivity in human PBMCs)) EUB0001619a HCK; type: cell-based; conditions: PBMC, at 1 µM
Tyrosine-protein kinase HCK (Homo sapiens), sequence (P08631 2-526 limits assumed): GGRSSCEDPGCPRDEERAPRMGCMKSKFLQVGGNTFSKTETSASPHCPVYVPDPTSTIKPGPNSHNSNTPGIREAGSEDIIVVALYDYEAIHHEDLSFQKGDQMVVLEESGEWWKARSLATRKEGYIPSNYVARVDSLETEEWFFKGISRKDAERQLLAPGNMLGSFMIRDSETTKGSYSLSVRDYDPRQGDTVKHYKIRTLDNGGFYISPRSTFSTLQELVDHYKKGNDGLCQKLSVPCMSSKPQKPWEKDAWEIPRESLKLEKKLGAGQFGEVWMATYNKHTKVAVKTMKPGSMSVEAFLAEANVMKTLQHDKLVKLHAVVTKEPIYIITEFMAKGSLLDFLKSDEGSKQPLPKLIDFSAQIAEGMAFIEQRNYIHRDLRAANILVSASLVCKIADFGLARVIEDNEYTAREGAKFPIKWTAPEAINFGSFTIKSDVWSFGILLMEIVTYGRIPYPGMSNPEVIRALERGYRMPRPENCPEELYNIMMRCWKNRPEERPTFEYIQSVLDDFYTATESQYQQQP

[13] = target: Mitogen-activated protein kinase kinase kinase 1 (Homo sapiens, UniProt Q13233); test: Selectivity interaction (KinomeScan (DiscoverX)) EUB0000618a MAP3K1; conditions: at 10 µM
[14] = target: Tyrosine-protein kinase Blk (Homo sapiens) (UniProt P51451); test: Selectivity interaction (KinomeScan (DiscoverX)) EUB0000618a BLK; conditions: at 10 µM
Tyrosine-protein kinase Blk (Homo sapiens), sequence (P51451 2-505 limits assumed): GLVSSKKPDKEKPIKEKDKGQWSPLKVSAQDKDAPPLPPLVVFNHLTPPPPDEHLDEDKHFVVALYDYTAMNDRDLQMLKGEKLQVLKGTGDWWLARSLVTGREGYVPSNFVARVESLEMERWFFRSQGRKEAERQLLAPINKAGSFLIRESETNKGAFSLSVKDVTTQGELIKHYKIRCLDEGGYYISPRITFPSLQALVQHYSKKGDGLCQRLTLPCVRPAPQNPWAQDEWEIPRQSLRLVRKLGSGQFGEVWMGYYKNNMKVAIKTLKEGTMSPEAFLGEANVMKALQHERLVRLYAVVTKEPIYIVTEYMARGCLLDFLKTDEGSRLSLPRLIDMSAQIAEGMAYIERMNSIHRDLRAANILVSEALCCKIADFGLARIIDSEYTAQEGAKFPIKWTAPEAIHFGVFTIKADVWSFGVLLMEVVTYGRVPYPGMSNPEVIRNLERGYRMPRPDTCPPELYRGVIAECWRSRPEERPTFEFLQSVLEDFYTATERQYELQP

Structure (SMILES): COc1cc(Nc2nc(C)cc(-c3cnn4nc(OC)ccc34)n2)cc(C(F)(F)F)c1
- % of control [1]: 76%
- % of control [2]: 89%

Structure (SMILES): CN(C)C/C=C/C(=O)Nc1ccc(C(=O)N2CCCC(Nc3ncc(Cl)c(-c4c[nH]c5ccccc45)n3)C2)cc1 (stereo not drawn)
- % of control [3]: 77%
- % of control [4]: 73%

Structure (SMILES): CC[C@@H]1[C@H](F)C(=O)N[C@@H]1COc1nccc2cc(C(N)=O)c(OC)cc12 [ZIMLOVISERTIB]
- % of inhibition [5]: 8.4%
- % of inhibition ([6]; at 0.01 µM): 6.6%
- % of inhibition ([6]; at 0.04 µM): 1.4%
- % of inhibition ([6]; at 0.2 µM): 11.2%
- % of inhibition ([6]; at 1 µM): 7.8%
- % of inhibition ([6]; at 5 µM): -3.7%
- % of inhibition [7]: -8.7%

Structure (SMILES): CNCCN1CCC(c2cc(CN(C)C(=O)c3cccc(Oc4ccccc4)c3)ccn2)CC1
- % activity [8]: > 90%

Structure (SMILES): Cn1cc(-n2cnc3c(NCc4nc5cc(Cl)c(Cl)cc5[nH]4)nc(N4CCOCC4)nc32)cn1
- % of control [9]: 28%

Structure (SMILES): Cc1cc(F)c(C(=O)Nc2cccc(-c3nncn3C(C)C)n2)cc1-n1cnc(C2CC2)c1
- % of control [10]: 100%

Structure (SMILES): COc1cc(N(C)c2ccnc3ccc(C(F)(F)F)cc23)cc(OC)c1OC
- % binding [11]: 85%

Structure (SMILES): N#Cc1cccc(-c2c[nH]c3ncnc(N4CCOCC4)c23)c1
- % of inhibition [12]: 21%

Structure (SMILES): O[C@H]1CC[C@H](Nc2ncc3nc(Nc4c(F)cc(F)cc4F)n([C@H]4CCOC4)c3n2)CC1
- % of control [13]: 91%
- % of control [14]: 98%

— ChEMBL document CHEMBL5465560, “Selectivity Literature for EUbOPEN Chemogenomic Library” (2024)
